The values that follow come from patent US8178535B2, “Substituted sulfonamide compounds having bradykinin 1 receptor activity and use thereof as medicaments” (Gruenenthal GmbH, priority 2008, dated 2012).

Experiment [1] addresses T1, human B1R receptor (hB1R) (Homo sapiens, UniProt P46663).
T1 construct: host or cells: CHO K1 cells
T1 sequence (P46663 1-353): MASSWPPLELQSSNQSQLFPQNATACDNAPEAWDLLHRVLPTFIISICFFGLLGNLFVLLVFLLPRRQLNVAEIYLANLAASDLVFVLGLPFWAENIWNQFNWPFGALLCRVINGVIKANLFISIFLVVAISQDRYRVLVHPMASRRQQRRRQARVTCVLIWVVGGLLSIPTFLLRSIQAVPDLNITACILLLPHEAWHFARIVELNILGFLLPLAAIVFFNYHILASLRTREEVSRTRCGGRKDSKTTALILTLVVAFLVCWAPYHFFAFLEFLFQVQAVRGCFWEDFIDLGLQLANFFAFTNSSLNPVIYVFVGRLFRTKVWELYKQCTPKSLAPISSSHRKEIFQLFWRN
Kind of experiment: FLIPR Ca2+ assay (Fluo-4) on CHO K1 cells stably transfected with the human B1R gene. Particulars: CHO-K1; test substance 10 μM; agonist Lys-Des-Arg9-bradykinin 0.5 nM; % inhibition compared to the maximum achievable inhibition. Format: cell-based. The essentials:
(§1)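 CHO K1 cells stably expressing human or rat B1R, Fluo-4 loaded, read by FLIPR (Ex 488/Em 540, peak fluorescence). Compound at 10 μM gives % activation vs agonist. After 10 min, agonist added (human: Lys-Des-Arg9-bradykinin 0.5 nM; rat: Des-Arg9-bradykinin 100 nM); % inhibition relative to maximal achievable inhibition.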

Experiment [2] addresses T2, B1R receptor of rats (rB1R) (Rattus norvegicus, UniProt P97583).
T2 construct: host or cells: CHO K1 cells
T2 sequence (P97583 1-337): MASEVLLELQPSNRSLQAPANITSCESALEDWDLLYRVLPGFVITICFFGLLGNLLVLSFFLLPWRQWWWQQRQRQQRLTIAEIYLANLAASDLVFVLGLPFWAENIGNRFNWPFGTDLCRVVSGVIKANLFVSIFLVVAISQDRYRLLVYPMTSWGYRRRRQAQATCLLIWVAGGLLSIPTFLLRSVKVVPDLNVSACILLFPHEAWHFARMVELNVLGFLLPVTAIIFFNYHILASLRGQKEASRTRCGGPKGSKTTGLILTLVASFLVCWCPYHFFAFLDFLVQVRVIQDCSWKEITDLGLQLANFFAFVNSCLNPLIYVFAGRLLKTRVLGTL
Kind of experiment: FLIPR Ca2+ assay (Fluo-4) on CHO K1 cells stably transfected with the B1R gene of rats. Format: cell-based. Particulars: CHO-K1; test substance 10 μM; agonist Des-Arg9-bradykinin 100 nM; % inhibition compared to the maximum achievable inhibition. The essentials: as §1

Consider `COc1cc(C)c(S(=O)(=O)N2CCCCC2CCC(=O)N2CCn3c(Cc4ccncc4)ccc3C2)c(C)c1` (stereo not drawn) [(99), 3-(1-(4-Methoxy-2,6-dimethylphenylsulfonyl)piperidin-2-yl)-1-(6-(pyridin-4-ylmethyl)-3,4-dihydropyrrolo[1,2-a]pyrazin-2(1H)-yl)propan-1-one], for which the figures for the inhibition at 10 µM in experiment [1] and in experiment [2] were 72% and 102%, respectively.

With `COc1cc(C)c(S(=O)(=O)N2CCCCC2CCCC(=O)N2CCn3cc(-c4ccncc4)nc3C2)c(C)c1` (stereo not drawn) [(100), 4-(1-(4-Methoxy-2,6-dimethylphenylsulfonyl)piperidin-2-yl)-1-(2-(pyridin-4-yl)-5,6-dihydroimidazo[1,2-a]pyrazin-7(8H)-yl)butan-1-one], the inhibition (as a rule, the drop in the measured response relative to a control, in per cent) at 10 µM was 85% in experiment [1] and 101% in experiment [2].

Consider `COc1cc(C)c(S(=O)(=O)N2CCCCC2COCC(=O)N2CCn3c(CCc4cccnc4)ccc3C2)c(C)c1` (stereo not drawn) [(101), 2-((1-(4-Methoxy-2,6-dimethylphenylsulfonyl)piperidin-2-yl)methoxy)-1-(6-(2-(pyridin-3-yl)ethyl)-3,4-dihydropyrrolo[1,2-a]pyrazin-2(1H)-yl)ethanone], for which the inhibition at 10 µM amounted to 100% in experiment [1] and 98% in experiment [2].

With `COc1cc(C)c(S(=O)(=O)N2CCCCC2CCC(=O)N2CCn3c(CCc4cccnc4)ccc3C2)c(C)c1` (stereo not drawn) [(102), 3-(1-(4-Methoxy-2,6-dimethylphenylsulfonyl)piperidin-2-yl)-1-(6-(2-(pyridin-3-yl)ethyl)-3,4-dihydropyrrolo[1,2-a]pyrazin-2(1H)-yl)propan-1-one], the inhibition at 10 µM is 86% in experiment [1] and 101% in experiment [2].

As for `COc1cc(C)c(S(=O)(=O)N2CCCCC2CCCC(=O)N2CCn3c(CCc4cccnc4)ccc3C2)c(C)c1` (stereo not drawn) [(103), 4-(1-(4-Methoxy-2,6-dimethylphenylsulfonyl)piperidin-2-yl)-1-(6-(2-(pyridin-3-yl)ethyl)-3,4-dihydropyrrolo[1,2-a]pyrazin-2(1H)-yl)butan-1-one], the inhibition at 10 µM came to 95% in experiment [1] and 100% in experiment [2].

For `O=C(CC1CCCCN1S(=O)(=O)c1cccc(C(F)(F)F)c1)N1CCn2cc(-c3ccncc3)nc2C1` (stereo not drawn) [(104), 1-(2-(Pyridin-4-yl)-5,6-dihydroimidazo[1,2-a]pyrazin-7(8H)-yl)-2-(1-(3-(trifluoromethyl)phenylsulfonyl)piperidin-2-yl)ethanone], the inhibition at 10 µM was 43% in experiment [1] and 49% in experiment [2].

Turning to `COc1cc(C)c(S(=O)(=O)N2CCCCC2CCCC(=O)N2CCn3c(Cc4cccnc4)ccc3C2)c(C)c1` (stereo not drawn) [(105), 4-(1-(4-Methoxy-2,6-dimethylphenylsulfonyl)piperidin-2-yl)-1-(6-(pyridin-3-ylmethyl)-3,4-dihydropyrrolo[1,2-a]pyrazin-2(1H)-yl)butan-1-one], the inhibition at 10 µM amounted to 64% in experiment [1] and 103% in experiment [2].

In the case of `COc1cc(C)c(S(=O)(=O)N2CCCCC2COCC(=O)N2CCn3c(CCc4ccncc4)ccc3C2)c(C)c1` (stereo not drawn) [(106), 2-((1-(4-Methoxy-2,6-dimethylphenylsulfonyl)piperidin-2-yl)methoxy)-1-(6-(2-(pyridin-4-yl)ethyl)-3,4-dihydropyrrolo[1,2-a]pyrazin-2(1H)-yl)ethanone], the inhibition at 10 µM in experiment [1] and in experiment [2] was 99% throughout.

Regarding `O=C(CC1CCCCN1S(=O)(=O)c1cccc(C(F)(F)F)c1)N1CCn2c(CCc3ccncc3)ccc2C1` (stereo not drawn) [(107), 1-(6-(2-(Pyridin-4-yl)ethyl)-3,4-dihydropyrrolo[1,2-a]pyrazin-2(1H)-yl)-2-(1-(3-(trifluoromethyl)phenylsulfonyl)piperidin-2-yl)ethanone], the values for the inhibition at 10 µM in experiment [1] and in experiment [2] were 26% and 75%, respectively.

`COc1cc(C)c(S(=O)(=O)N2CCCCC2CCC(=O)N2CCn3c(CCc4ccncc4)ccc3C2)c(C)c1` (stereo not drawn) [(108), 3-(1-(4-Methoxy-2,6-dimethylphenylsulfonyl)piperidin-2-yl)-1-(6-(2-(pyridin-4-yl)ethyl)-3,4-dihydropyrrolo[1,2-a]pyrazin-2(1H)-yl)propan-1-one]: the figures for the inhibition at 10 µM in experiment [1] and in experiment [2] were 92% and 99%, respectively.

For the molecule `COc1cc(C)c(S(=O)(=O)N2CCCCC2CCCC(=O)N2CCn3c(CCc4ccncc4)ccc3C2)c(C)c1` (stereo not drawn) [(109), 4-(1-(4-Methoxy-2,6-dimethylphenylsulfonyl)piperidin-2-yl)-1-(6-(2-(pyridin-4-yl)ethyl)-3,4-dihydropyrrolo[1,2-a]pyrazin-2(1H)-yl)butan-1-one], the inhibition at 10 µM in experiment [1] came out at 95%; in experiment [2], 99%.

With `COc1cc(C)c(S(=O)(=O)N2CCCCC2CCCC(=O)N2CCn3c(ccc3-c3ccncc3)C2)c(C)c1` (stereo not drawn) [(110), 4-(1-(4-Methoxy-2,6-dimethylphenylsulfonyl)piperidin-2-yl)-1-(6-(pyridin-4-yl)-3,4-dihydropyrrolo[1,2-a]pyrazin-2(1H)-yl)butan-1-one], the inhibition at 10 µM is 84% in experiment [1] and 101% in experiment [2].

On to `COc1cc(C)c(S(=O)(=O)N2CCCCC2COCC(=O)N2CCn3c(Cc4cccnc4)ccc3C2)c(C)c1` (stereo not drawn) [(111), 2-((1-(4-Methoxy-2,6-dimethylphenylsulfonyl)piperidin-2-yl)methoxy)-1-(6-(pyridin-3-ylmethyl)-3,4-dihydropyrrolo[1,2-a]pyrazin-2(1H)-yl)ethanone], for which the results for the inhibition at 10 µM in experiment [1] and in experiment [2] were 100% and 98%, respectively.

As for `COc1cc(C)c(S(=O)(=O)N2CCCCC2COCC(=O)N2CCn3cc(-c4ccncc4)nc3C2)c(C)c1` (stereo not drawn) [(112), 2-((1-(4-Methoxy-2,6-dimethylphenylsulfonyl)piperidin-2-yl)methoxy)-1-(2-(pyridin-4-yl)-5,6-dihydroimidazo[1,2-a]pyrazin-7(8H)-yl)ethanone], the results for the inhibition at 10 µM in experiment [1] and in experiment [2] were 100% and 101%, respectively.

As for `COc1cc(C)c(S(=O)(=O)N2CCCCC2CCC(=O)N2CCn3c(Cc4cccnc4)ccc3C2)c(C)c1` (stereo not drawn) [(113), 3-(1-(4-Methoxy-2,6-dimethylphenylsulfonyl)piperidin-2-yl)-1-(6-(pyridin-3-ylmethyl)-3,4-dihydropyrrolo[1,2-a]pyrazin-2(1H)-yl)propan-1-one], the inhibition at 10 µM was 97% in experiment [1] and 100% in experiment [2].

`COc1cc(C)c(S(=O)(=O)N2CCCCC2CCC(=O)N2CCn3cc(-c4ccncc4)nc3C2)c(C)c1` (stereo not drawn) [(114), 3-(1-(4-Methoxy-2,6-dimethylphenylsulfonyl)piperidin-2-yl)-1-(2-(pyridin-4-yl)-5,6-dihydroimidazo[1,2-a]pyrazin-7(8H)-yl)propan-1-one]: the inhibition at 10 µM in experiment [1] worked out at 79%; in experiment [2] it was 98%.

Take `COc1cc(C)c(S(=O)(=O)N2CCCCC2COCC(=O)N2CCn3cc(CCc4ccncc4)nc3C2)c(C)c1` (stereo not drawn) [(115), 2-((1-(4-Methoxy-2,6-dimethylphenylsulfonyl)piperidin-2-yl)methoxy)-1-(2-(2-(pyridin-4-yl)ethyl)-5,6-dihydroimidazo[1,2-a]pyrazin-7(8H)-yl)ethanone]: the inhibition at 10 µM in experiment [1] worked out at 100%; in experiment [2] it was 98%.

As for `O=C(CC1CCCCN1S(=O)(=O)c1cccc(C(F)(F)F)c1)N1CCn2cc(CCc3ccncc3)nc2C1` (stereo not drawn) [(116), 1-(2-(2-(pyridin-4-yl)ethyl)-5,6-dihydroimidazo[1,2-a]pyrazin-7(8H)-yl)-2-(1-(3-(trifluoromethyl)phenylsulfonyl)piperidin-2-yl)ethanone], the inhibition at 10 µM stood at 78% in experiment [1] and 102% in experiment [2].
